For series [1] the following is noted: for relative plasma concentrations between study arms: targeted analysis, baseline vs cimetidine exposure.
The subject of another series is OCT2. As to conditions: read-out: IC50 for OCT2; cited from earlier work.
For another series, the system named is aldehyde oxidase, AO. The following applies: cited from earlier work.
For series [2], the system named is nicotinamide N-methyltransferase, NNMT. The following applies: cited from earlier work.
For series [3], the system named is Oct1. The following applies: Oct1 knockout mice vs wild-type mice, single oral dose of metformin; cited from earlier work.
For series [4] the following is noted: cited from earlier work.
For series [5] the following is noted: excreted unchanged into urine; cited from earlier work.
The nature of a further series: clinical. As to conditions: both, human, po; for Cmax: plasma.
For series [6] the following is noted: rats, cimetidine 100 mg/kg intraperitoneally; cited from earlier work.
Series [7] relates to OCT1. As to conditions: potent OCT1 inhibitor new chemical entity vs placebo, healthy adults; cited from earlier work.
The conditions of series [8]: pyrimethamine 75 mg, healthy adults; cited from earlier work.
[9] abbreviates: decrease with cimetidine 400 mg vs baseline, healthy adults.
The mark [10] stands for this setting: increase with cimetidine 400 mg vs baseline, healthy adults.
Setting [11] is: cimetidine 400 mg vs baseline, healthy adults.
The mark [12] stands for this setting: cimetidine 400 mg vs baseline, healthy adults, listed as NMA.

pIC50: −log10 of the molar value. Read-outs that look alike come from different tables or passages of the source.

Take `CC(=O)OCC[N+](C)(C)C` [acetylcholine]: the “relative plasma concentrations between study arms” value in series [1] is reported as “no significant differences”.
Regarding `C[N+](C)(C)CCO` [choline], the “relative plasma concentrations between study arms” value in [1] was “no significant differences”.
Consider `CN/C(=N/CCSCc1nc[nH]c1C)NC#N` [Cimetidine, cimetidine], for which the pIC50 in the series with OCT2 is 3.68 to 4.63. The “inhibition of AO activity” value in the series on aldehyde oxidase, AO is listed as “does not inhibit”. For the same compound, the “inhibition of NNMT activity” value in series [2] was “does not inhibit”.
For the compound `C[n+]1cccc(C(=O)O)c1` [N1-methyl nicotinic acid], in series [1], the “relative plasma concentrations between study arms” value was “no significant differences”.
Same read-out and setting: then `C[N+](C)(C)CC(=O)[O-]` [glycine betaine], with “no significant differences”.
`CN(C)C(=N)N=C(N)N` [Metformin]: the “reduction of hepatic metformin concentration” value in the series with Oct1 [3] was 3.4 fold. In series [1] (MATE1 c.−66T>C (rs2252281), baseline arm, p = 0.042), the “higher AUC(0–24 h), group TT compared to heterozygous group TC” value amounted to 1.42 fold. Moreover, the “CLr,b %Change (cimetidine exposure/baseline), decrease (↓)” value in [1] (setting [9]) is given as 17% (↓). For the same compound, the “CLr,a %Change (cimetidine exposure/baseline), decrease (↓)” value in series [1] (decrease with cimetidine 400 mg vs baseline, healthy adults, CLr based on 0–24 h) is 8% (↓). The “Renal OCT2 alone (AUC(0–24 h)) % Change Observed data, increase (↑)” value in [1] (from the observed CLr decrease) is 8% (↑). In addition, the “AUC(0–24 h) %Change (cimetidine exposure/baseline), increase (↑)” value in series [1] (setting [10]) was 24% (↑); in series [1] (increase with cimetidine 400 mg vs baseline, healthy adults, listed as metformin), 24%. Besides, in series [1] (setting [10]), the “Ae(0–4 h) %Change (cimetidine exposure/baseline), increase (↑)” value is reported as 4% (↑). In addition, the “increase in Cmax with cimetidine treatment” value in [1] (individuals homozygous for OCT1 c.480G>C (p.Leu160Phe, rs683369), p = 0.006) came out at 48%. For the same compound, the “increase in AUC(0–24 h) with cimetidine treatment” value in [1] (individuals homozygous for OCT1 c.480G>C (p.Leu160Phe, rs683369), p = 0.025) was determined as 33%. Moreover, the “increase in AUC(0–24 h) with cimetidine” value in series [1] (participants homozygous for OCT2 c.1506C>T (p.Val502=, rs316003), p = 0.022) was 27%; in [1] (participants homozygous for OCT2 c.518+32G>C (rs2774230), p = 0.013) it was 35%. For the same compound, in series [1] (participants homozygous for OCT2 c.518+32G>C (rs2774230) or c.1506C>T (rs316003)), the “reduction in CLr,a with cimetidine” value worked out at 9%. The “decrease in CLr” value in series [4] (oral metformin 250–500 mg with cimetidine, healthy adults) was 27–45%. In series [4] (similar cimetidine dosing regimen (400 mg), not statistically significant, ref 26 (Koishikawa et al.)), the “reduction in metformin CLr” value is recorded as 15%. Besides, in series [5], the “share of urinary excretion through glomerular filtration” value was 25%. The “share of urinary excretion through renal secretion” value in series [5] was 75%. Further, the Cmax amounted to 168 ng/mL in “clinical” and 124 ng/mL in “clinical” (50 mg). In addition, the “increase in metformin blood concentrations” value in series [6] is listed as 3.2 fold. Besides, in [6], the “reduction in CLr” value is recorded as 73%.
With `CC(C)C(=O)O[C@H](CC(=O)[O-])C[N+](C)(C)C` [Isobutyryl-L-carnitine, isobutyryl-L-carnitine], in series [1] (setting [11]), the “AUC(0–4 h), effect of cimetidine exposure vs baseline (in words)” value is listed as “did not differ”; the “AUC(0–24 h), effect of cimetidine exposure vs baseline (in words)” value is reported as “did not differ”; the “Cmax, effect of cimetidine exposure vs baseline (in words)” value (shortened to “Cmax, effect … vs baseline (in words)”) is “did not differ”. For the same compound, in series [1] (setting [9]), the “AUC(0–24 h) %Change (cimetidine exposure/baseline), decrease (↓)” value is given as 4% (↓) and the “Cmax %Change (cimetidine exposure/baseline), decrease (↓)” value is 6% (↓). In addition, the “decrease in plasma exposure” value in the series on OCT1 [7] is 35%.
Take `N[C@@H](Cc1c[nH]c2ccccc12)C(=O)O` [tryptophan]: in [1], the “relative plasma concentrations between study arms” value is given as “no significant differences”.
On the same count and under the same terms, then `C[N+](C)(C)CC(O)CC(=O)[O-]` (stereo not drawn) [carnitine], with “no significant differences”.
For the compound `Cn1cnc2c(ncn2[C@@H]2O[C@H](CO)[C@@H](O)[C@H]2O)c1=N` [N1-Methyladenosine, N1-methyladenosine], in [1] (setting [11]), the “AUC(0–4 h), effect of cimetidine exposure vs baseline (in words)” value is “comparable”; the “AUC(0–24 h), effect of cimetidine exposure vs baseline (in words)” value was “comparable”; the “Ae(0–4 h), effect of cimetidine exposure vs baseline (in words)” value was “comparable”; the “Ae(0–24 h), effect of cimetidine exposure vs baseline (in words)” value is on record as “comparable”. Moreover, in series [1] (setting [11]), the “CLr,a, effect of cimetidine exposure vs baseline (in words)” value is given as “No change”; the “CLr,b, effect of cimetidine exposure vs baseline (in words)” value is given as “comparable”; the “Cmax, effect … vs baseline (in words)” value is reported as “No change”. In addition, in [1] (setting [12]), the “CLr,a, effect of cimetidine exposure vs baseline (in words)” value is recorded as “comparable” and the “Cmax, effect … vs baseline (in words)” value is “comparable”. In [1] (setting [9]), the “AUC(0–4 h) %Change (cimetidine exposure/baseline), decrease (↓)” value was 5% (↓); the “AUC(0–24 h) %Change (cimetidine exposure/baseline), decrease (↓)” value is recorded as 5% (↓); the “Ae(0–24 h) %Change (cimetidine exposure/baseline), decrease (↓)” value is on record as 4% (↓). Moreover, in [1] (setting [10]), the “Ae(0–4 h) %Change (cimetidine exposure/baseline), increase (↑)” value is on record as 44% (↑) and the “CLr,b %Change (cimetidine exposure/baseline), increase (↑)” value is 53% (↑). The “reduction in CLr” value in [8] is recorded as 47%. The compound also had a CL renal in “clinical” (plasma and urine) of 68.3 mL/min. The compound further showed a Cmax in the series “clinical” of 2.6 ng/mL. Further, the concentration in the series “clinical” (50 mg) peaked (Cmax) at 2.6 ng/mL.

As usually defined, the pIC50 is the IC50 on a negative log10 scale, so that one unit is a factor of ten. For orientation: Cmax means the peak of the concentration-time curve.

These data come from PMC12596758 (Clinical pharmacology and therapeutics, 2025).
